The test system of this experiment is transfused human platelets. Put plainly: human platelets transfused into Wistar rats (platelet refractoriness model). The experiment is classed as in vivo, Wistar rat. As for the experimental part:
Male Wistar rats approximately 16 weeks old and 250 grams in weight were purchased (Hilltop Scottdale, Pa.) with indwelling intra jugular catheters in place. Rats were sedated with ketamine and acepromazine throughout the course of the experiment with monitoring of vital signs. PIC1 infusions were performed 30 seconds prior to transfusion with PKH26 stained human platelets. Blood samples were collected into K2EDTA microtainer tubes (BD, Franklin Lakes, N.J., USA) from the animals prior to transfusion and then at 0.5, 2, 5, 20, 60 and 120 min after transfusion. Upon completion of the final blood draw, the animals were euthanized using Fatal Plus (Vortech Pharmaceuticals, Dearborn, Mich., USA). A necropsy was completed after euthanasia to collect organs for histopathology.
Flow cytometry was performed using a FACSCalibur flow cytometer (Becton Dickinson, Franklin Lakes, N.J., USA) with DXP 8 Color 488/637/407 upgrade (Cytek Development, Freemont, Calif., USA). The data was acquired using Cytek FlowJo CE version 7.5.110.7. Prior to analysis on the flow cytometry machine, whole rat blood was spun at 500×g for 5 min. The plasma platelet layer was removed and then diluted 1:10 with PBS. Approximately 20,000 events selected for platelet size were run on the […]. Data was analyzed using FlowJo V10.4.2 (FlowJo LLC, Ashland, Oreg., USA).
The unstained native rat platelets are to the left of the vertical line, and the stained transfused platelets are to the right. […] This difference is not noticeable at two minutes.
Total platelet counts for rats transfused with unstained platelets treated with PIC1 or saline control (as shown in FIG. 12B) were evaluated in order to evaluate if similar trends could be determined for unstained platelets. Platelet counts were measured for each blood sample by Antech Diagnostics (Chesapeake, Va.). Decreases in platelet counts were calculated for each time point compared with the maximal platelet count immediately after transfusion at 30 seconds.

For the substance “H2N-IALILEPICCQERAA-dPEG24 (H-IALILEPICCQERAA-dPEG24; cysteine pairing not given here) [PA-dPEG24, 15-amino acid PEGylated peptide, 24 PEG moieties at the C-terminus]”, the “increase in transfused platelets compared with control” value (160 mg/kg infused 30 seconds before transfusion, 0.5 minutes after transfusion, P=0.05, FIG. 12A) is recorded as 2 fold. The “stained transfused platelets, representative flow cytometry” value (160 mg/kg, 0.5 minutes after transfusion, vs vehicle, FIG. 11) is “increased numbers of stained transfused platelets”. Also, the “amount of transfused platelets compared with control” value (160 mg/kg, later time points than 0.5 minutes) is on record as “no significant difference in the amount of transfused platelets”. Also, the “decrease in total platelet count relative to 30 seconds after transfusion” value (unstained platelets, two minutes (P=0.04) and 20 minutes (P=0.03), FIG. 12B) is “Statistically significant greater decreases in the platelet count were found for saline-treated versus PA-dPEG24-treated animals”.

Source of the values: US20220096592A1, “PIC1 VARIANTS WITH IMPROVED SOLUBILITY AND METHODS OF USING THE SAME” (priority 2019, published 2022).
